From article PMC7337247 (Critical care medicine, 2020)
Entries after “also recorded” stand apart in the source; their conditions may differ. Like-named read-outs stand apart in the source and are kept apart here.

Tests used:
CXCR2 [1] = assay: Surface expression of CXCR2 by flow cytometry; type: cell-based, human; conditions: 100 nM ND6; with or without 1 μM POL7200 pretreatment
BLT1 [2] = assay: Surface expression of BLT1 by flow cytometry; type: cell-based, human; conditions: 100 nM ND6; with or without 1 μM POL7200 pretreatment; 3 separate experiments
human FPR1 = target: T1, human FPR1 (Homo sapiens, UniProt P21462); conditions: cited from earlier work
T1 sequence (P21462 1-350): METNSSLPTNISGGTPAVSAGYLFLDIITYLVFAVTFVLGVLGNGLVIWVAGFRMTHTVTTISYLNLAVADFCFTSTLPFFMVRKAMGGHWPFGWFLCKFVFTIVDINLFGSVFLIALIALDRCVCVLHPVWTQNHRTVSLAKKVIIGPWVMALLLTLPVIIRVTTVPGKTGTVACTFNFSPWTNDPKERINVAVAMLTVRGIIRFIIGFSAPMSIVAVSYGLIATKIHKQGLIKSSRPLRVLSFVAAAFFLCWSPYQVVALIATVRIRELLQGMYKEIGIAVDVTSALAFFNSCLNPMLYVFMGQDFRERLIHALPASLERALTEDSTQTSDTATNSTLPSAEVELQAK

human PMN [3] = conditions: ref [7]; cited from earlier work
BLT1 [4] = assay: fMLF-induced heterologous desensitization: LTB4-induced Ca2+ depletion; type: cell-based, human; conditions: fMLF 10 nM or 100 nM; 100 nM LTB4
CXCR2 [5] = assay: fMLF-induced heterologous desensitization: CXCL1-induced Ca2+ depletion; type: cell-based, human; conditions: pre-treatment with fMLF; 5 nM CXCL1
[6] = tested on: wild type bone marrow PMN; assay: fMLF desensitization of migration to KC, wild type mouse BM-PMN; type: cell-based; conditions: fMLF 100 nM or 1 μM for 45 min; KC 100 ng/mL; 60 min
Fpr2-KO bone marrow PMN = assay: fMLF desensitization of migration to KC, Fpr2-KO mouse BM-PMN; type: cell-based; conditions: fMLF 100 nM or 1 μM for 45 min; KC 100 ng/mL; 60 min
Fpr1-KO bone marrow PMN = assay: fMLF desensitization of migration to KC, Fpr1-KO mouse BM-PMN; type: cell-based; conditions: fMLF 100 nM or 1 μM for 45 min; KC 100 ng/mL; 60 min
human PMN [7] = assay: PMN phagocytosis of pHrodo-labeled E. coli; type: cell-based; conditions: 10 μg/mL Cytochalasin D, E. coli 20:1, 30 min 37°C

Compound: fMMYALF [ND6]
- effect on CXCR2 surface expression (CXCR2 [1]): significantly reduces expression of CXCR2; also recorded: internalized and decreased the surface expression of CXCR2 and BLT1
- effect on BLT1 surface expression (BLT1 [2]): significantly reduces expression of BLT1
- receptor through which it acts (human FPR1; 100 nM, ref [7]): acts exclusively at FPR1
- potency as inducer of PMN Ca2+ release/chemotaxis (human PMN [3]): potent inducer of human PMN Ca^2+ release and chemotaxis; also recorded: even more potent than fMLF; also recorded: most potent human mtFP

Compound: N-formyl-methionyl-leucyl phenylalanine [fMLF]
- suppression of LTB4-induced Ca2+ response by fMLF pre-treatment (BLT1 [4]): markedly inhibits Ca^2+ flux response to LTB4; also recorded: significantly reduced calcium depletion
- suppression of CXCL1-induced Ca2+ response by fMLF pre-treatment (CXCR2 [5]): strongly inhibits that response; also recorded: significantly reduced calcium depletion
- effect of fMLF pre-exposure on migration toward KC, wild type [6]: inhibited migration toward the CXC-chemokine KC; also recorded: desensitized to KC by prior fMLF exposure
- effect of fMLF pre-exposure on migration toward KC, Fpr2-KO (Fpr2-KO bone marrow PMN): inhibited migration toward the CXC-chemokine KC; also recorded: desensitized to KC by prior fMLF exposure
- effect of fMLF pre-exposure on migration toward KC, Fpr1-KO (Fpr1-KO bone marrow PMN): PMN migration to KC persisted; also recorded: protected from chemokine desensitization
- receptor through which it acts (human FPR1; nanomolar concentrations, ref [17]): acts exclusively through high-affinity human FPR1 receptors

Compound: C=C1[C@@H](C)[C@H]2[C@H](Cc3ccccc3)NC(=O)[C@]23[C@H](OC(C)=O)/C=C/[C@@](C)(O)C(=O)[C@@H](C)C/C=C/[C@H]3[C@@H]1O [Cytochalasin D]
- effect on phagocytosis, positive control (human PMN [7]): expected suppression of phagocytosis
- effect on phagocytosis, positive control (human PMN [7]; listed as cytochalasin D): inhibited PMN phagocytosis
